Measured values as given in patent US20150265514A1, “METHODS OF INHIBITING HAIR GROWTH” (NOGRA PHARMA LIMITED, priority 2012, published 2015).
Entries after “also recorded” stand apart in the source; their conditions may differ.

What was measured:
[1] = tested on: anagen VI hair follicles (HFs); assay: HF cycle staging (anagen/catagen) in hair follicle organ culture; type: cell-based, human
Experimental: (§1) Normally pigmented anagen VI hair follicles (HFs) (grey/white HFs were excluded from the study) were microdissected from normal human scalp skin and organ cultured following the Philpott model. Compound A or vehicle was administered once for each change of medium (i.e. every 48 h/72 h).
(§2) Details regarding tissue specimen origin used in the present example are as described in Example 2 above.
HF cycle staging was carried out according to previously defined morphological criteria, and the percentage of HFs in anagen and early, mid, or late catagen was determined.
(§3) To evaluate apoptotic cells in colocalization with a proliferation marker Ki-67, a Ki-67/terminal dUTP nick-end labeling (TUNEL) double-staining method was used. Cryostat sections were fixed in paraformaldehyde and ethanol-acetic acid (2:1) and labeled with a digoxigenin-deoxy-UTP (ApopTag fluorescein in situ apoptosis detection kit; Intergen, Purchase, N.Y.) in the presence of terminal deoxynucleotidyl transferase, followed by incubation with a mouse anti-Ki-67 antiserum (1:20 in PBS overnight at 4 C; Dako, Glostrup, Denmark). TUNEL-positive cells were visualized by an antidigoxigenin fluorescein isothiocyanate-conjugated antibody (ApopTag kit), whereas Ki-67 was detected by a rhodamine-labeled goat antimouse antibody (Jackson ImmunoResearch, West Grove, Pa.). Negative controls were performed by omitting terminal deoxynucleotidyltransferase and the Ki-67 antibody. Counterstaining was performed with 4′,6-diamidino-2-phenylindole (DAPI) (Roche Molecular Biochemicals GmbH, Mannheim, Germany). Quantitative immunohistomorphometry was performed; Ki-67-, TUNEL-, or DAPI-positive cells were counted in a previously defined reference region of the HF matrix, and the percentage of Ki-67/TUNEL-positive cells were determined. Statistical analysis was performed using a two-tailed Student's t-test for unpaired samples. […] In order to avoid data distortion by individual experiments, rigid exclusion criteria were defined that allowed to exclude one individual experiment (out of 5-6) per read-out parameter. […]

[2] = tested on: keratin K15; assay: K15 quantitative immunohistochemistry in organ-cultured human scalp hair follicles; type: cell-based; conditions: human scalp HF organ culture; for Keratin-15 immunoreactivity: all concentrations tested, pooled data
Experimental: (§4) Normal human scalp skin was obtained from 6 women undergoing routine face-lift surgery after informed consent. All experiments were performed according to Helsinki guidelines, with appropriate ethics committee approval.
as §1
To investigate keratin K15 expression, the tyramide signal amplification method was used as previously described (Kloepper et al., 2008). Briefly, acetone fixed cryosections were washed three times for 5 min using TNT (Tris-HCL NaCl Tween) buffer (0.1 mol/1 Tris-HCl, pH 7.5; containing 0.15 mol/1 NaCl and 0.05% Tween 20). Next, horseradish peroxidase was blocked by washing with 3% H2O2 in phosphate-buffered saline (PBS) for 15 min. Preincubation was performed with the incubation of avidin and biotin for 15 min and 5% goat normal serum in TNT for 30 min with washing steps in between. Mouse anti-human K15 (clone LHK15, Chemicon, Billerica, USA) was diluted in TNT and incubated overnight at 4° C. followed by a biotinylated secondary antibody goat anti-mouse (1:200 in TNT) for 45 min at RT. Next, streptavidin horseradish peroxidase (TSA kit; Perkin-Elmer, Boston, Mass., USA) was administered (1:100 in TNT) for 30 min at RT. […] The intensity of the immunostaining was quantified by ImageJ software (National Institutes of Health). The staining intensity of defined reference regions in the HF was measured and compared between control and N Compound A-treated groups. The percentage of K15-positive cells in comparison to the total amount of cells in the ORS was calculated.
Statistical analysis was performed using a two-tailed Student's t-test for unpaired samples. […] In order to avoid data distortion by individual experiments, rigid exclusion criteria were defined that allowed to exclude one individual experiment (out of 5-6) per read-out parameter. […]

[3] = tested on: anagen VI hair follicles (HFs); assay: LDH activity in supernatant of hair follicle organ culture (cytotoxicity); type: cell-based, human; conditions: for LDH activity in the supernatant: 0.1 mM dose, day 6, pooled data
Experimental: as §1, §2
LDH activity in the supernatant can serve as an indicator of cytotoxicity and was measured following the manufacturer's instructions (Cytotoxicity Detection Kit; Roche, Mannheim, Germany). The absorbance of the samples was measured at 490 nm using an ELISA plate-reader.
as §3, with “determined.” for “determined. Statistical analysis was performed using a two-tailed Student's t-test for unpaired samples.”

[4] = tested on: anagen VI hair follicles (HFs); assay: Hair shaft elongation in hair follicle organ culture; type: cell-based, human
Experimental: as §1, §2
Hair shaft length measurements of HFs were performed on individual HFs using a Zeiss inverted binocular microscope with an eyepiece measuring graticule.
as §3

[5] = tested on: K19; assay: K19 quantitative immunohistochemistry in organ-cultured human scalp hair follicles; type: cell-based; conditions: for Keratin 19 immunoreactivity: all concentrations tested
Experimental: as §4, §1
A previously described protocol was used to investigate K19 expression (Kloepper et al., 2008). Briefly, acetone-fixed cryosections were pre-treated with goat serum (10% in Tris-buffered saline, Dako). The sections were incubated first with primary antibodies against K19 (mouse anti-human: K19-1:10; overnight, at 4° C.; PROGEN, Heidelberg, Germany;) and then with FITC-labeled goat anti-mouse (1:200 in TBS, for 45 min, RT, Jackson ImmunoResearch) immunoglobulins as secondary antibodies. Counterstaining was performed with DAPI (Boehringer Mannheim, Mannheim, Germany). The intensity of this immunostaining was quantified by ImageJ software (National Institutes of Health). The staining intensity of defined reference regions in the HF was measured and compared between control and Compound A-treated groups. The percentage of K19-positive cells in comparison to the total amount of cells in the ORS was calculated.
Statistical analysis was performed using a two-tailed Student's t-test for unpaired samples. For meta-analysis purposes, a total of six assays (each with HFs from a different female individual) were run. […] In order to avoid data distortion by individual experiments, rigid exclusion criteria were defined that allowed to exclude one individual experiment (out of 5-6) per read-out parameter. Since these exclusion criteria differed for each study parameter, different experiments (i.e. one out of 6, and one out of 5 in the case of keratin 19 analysis) were excluded for each assay parameter. The exclusion criteria were: (i) most extreme deviation from the results trend shown by the majority among the 6 experiments, in order to avoid data distortion by outliers (which can be affected e.g. by patient's medication, medical history etc.); and (ii) failure to meet minimal quality criteria.

[6] = listed as N-acetyl-(R)-(−)-3-(4-aminophenyl)-2-methoxypropionic acid

## CO[C@H](Cc1ccc(NC(C)=O)cc1)C(=O)O [Compound A, N-acetyl-(R)-(−)-3-(4-aminophenyl)-2-methoxypropionic acid]
[1]; all concentrations, pooled data
  hair cycle effect (catagen): induced catagen; also recorded: catagen-inducing effect
[1]; analysis of the individual 5 experiments, percentage of each hair cycle stage, n=5
  hair cycle effect (catagen): strong trend towards induction of catagen
[1]; analysis of the individual 5 experiments, percentage of each hair cycle stage, n=5, listed as N-acetyl-(R)-(−)-3-(4-aminophenyl)-2-methoxypropionic acid
  hair cycle effect (catagen): trend toward catagen
[2]
  Keratin-15 immunoreactivity: strongly stimulated
  number of K15-positive cells: did not increase
[2]; [6]
  Keratin-15 immunoreactivity: stimulation
[3]
  LDH activity in the supernatant: slight increase
[3]; [6]
  LDH activity in the supernatant: increase
[3]; concluded from LDH activity
  HF toxicity under assay conditions: very low, if any
[4]; high dose (1 mM), day 6, pooled data
  hair shaft elongation: slightly, but significantly, inhibited; also recorded: inhibits hair shaft elongation
[4]; high dose (1 mM), day 6, pooled data, listed as N-acetyl-(R)-(−)-3-(4-aminophenyl)-2-methoxypropionic acid
  hair shaft elongation: inhibition
[4]; lower concentrations (below 1 mM)
  hair shaft elongation: did not have an effect
[5]; human scalp HF organ culture, pooled data
  Keratin 19 immunoreactivity: strongly stimulated
[5]; human scalp HF organ culture, pooled data, listed as N-acetyl-(R)-(−)-3-(4-aminophenyl)-2-methoxypropionic acid
  Keratin 19 immunoreactivity: stimulation
[5]; human scalp HF organ culture
  number of K19-positive cells relative to control: stimulating effect
[5]; low and high concentrations, pooled data
  numbers of K19 positive cells: increased numbers
